Assay results: patent US20020155518A1, “Method of detecting compounds that control fungal diseases via effects on sporulation” (priority 2000, published 2002)

Assays:
[1] = tested on: Wheat Powdery Mildew (Blumeria [Erysiphe] graminis f.sp. tritici); settings: in vivo; further: key: '+++' =high control; '++' =moderate control; '+' =low control; '0'=no control
[2] = tested on: Leptosphaeria (Septoria) nodorum; experiment: Protectant foliar spray test against wheat L. nodorum blotch; assay type: in vivo; further: key: '+++' =high control; '++' =moderate control; '+' =low control; '0'=no control
[3] = tested on: Apple Scab (Venturia inaequalis); experiment: Protectant foliar spray test against apple scab; assay type: in vivo; further: key: '+++' =high control; '++' =moderate control; '+' =low control; '0'=no control
[4] = tested on: Rice Blast (Magnaporthe grisea); assay type: in vivo; settings: foliar spray before inoculation, vs untreated inoculated controls
[5] = wheat, foliar spray before inoculation, vs untreated inoculated controls
[6] = apple seedlings, foliar spray before inoculation, vs untreated inoculated controls

CCCC(C)Oc1cc(C)c(C(=O)c2c(Cl)cccc2Cl)cc1OC (stereo not shown) [U, (2,6-dichlorophenyl)[5-methoxy-2-methyl-4-(1-methylbutoxy)phenyl]methanone]
Level of Plant Disease Control, Wheat Powdery Mildew [1]: ++
Level of Plant Disease Control, Wheat L. nodorum [2, 5]: +++
Level of Plant Disease Control, Apple Scab [3, 6]: 0
Level of Plant Disease Control, Rice Blast [4]: ++

COc1cc(C)c(C(=O)c2c(OC)ccc(Br)c2C)c(OCc2ccccc2F)c1OC [C, (3-bromo-6-methoxy-2-methylphenyl)[3,4-dimethoxy-6-methyl-2-[(2-fluorophenyl)methoxy]phenyl]methanone]
Level of Plant Disease Control, Wheat Powdery Mildew [1]: +++
Level of Plant Disease Control, Apple Scab [3, 6]: 0
Level of Plant Disease Control, Rice Blast [4]: ++

COc1cc(C)c(C(=O)c2c(OC)ccc(Br)c2C)c(OCc2ccc(Cl)cc2)c1OC [EE, (3-bromo-6-methoxy-2-methylphenyl)[3,4-dimethoxy-6-methyl-2-[(4-chlorophenyl)methoxy]phenyl]methanone]
Level of Plant Disease Control, Wheat Powdery Mildew [1]: +++
Level of Plant Disease Control, Wheat L. nodorum [2, 5]: 0
Level of Plant Disease Control, Apple Scab [3, 6]: 0
Level of Plant Disease Control, Rice Blast [4]: 0

CCCCOc1c(OC)cc(C)c(C(=O)c2c(Cl)cccc2Cl)c1OCCCC [B, (2,3-dibutoxy-4-methoxy-6-methylphenyl)(2,6-dichlorophenyl)methanone]
Level of Plant Disease Control, Wheat Powdery Mildew [1]: +++
Level of Plant Disease Control, Wheat L. nodorum [2, 5]: 0
Level of Plant Disease Control, Apple Scab [3, 6]: 0
Level of Plant Disease Control, Rice Blast [4]: 0

COc1cc(C)c(C(=O)c2c(C)cccc2C)c(OCc2c(F)cc(F)cc2F)c1OC [H, [3,4-dimethoxy-6-methyl-2-[(2,4,6-trifluorophenyl)methoxy]phenyl](2,6-dimethylphenyl)methanone]
Level of Plant Disease Control, Wheat Powdery Mildew [1]: +++
Level of Plant Disease Control, Wheat L. nodorum [2, 5]: 0
Level of Plant Disease Control, Apple Scab [3, 6]: 0
Level of Plant Disease Control, Rice Blast [4]: 0

COc1cc(C)c(C(=O)c2c(O)ccc(Cl)c2C)c(OC)c1OC [Compound N, (3-chloro-6-hydroxy-2-methylphenyl)(2,3,4-trimethoxy-6-methylphenyl)methanone]
Level of Plant Disease Control, Wheat Powdery Mildew [1]: +++
Level of Plant Disease Control, Wheat L. nodorum [2, 5]: 0
Level of Plant Disease Control, Apple Scab [3, 6]: 0
Level of Plant Disease Control, Rice Blast [4]: ++

COc1cc(C)c(C(=O)c2c(C)cccc2C)c(OCc2ccccc2)c1OC [O, [3,4-dimethoxy-6-methyl-2-(phenylmethoxy)phenyl](2,6-dimethylphenyl)methanone]
Level of Plant Disease Control, Wheat Powdery Mildew [1]: +++
Level of Plant Disease Control, Wheat L. nodorum [2, 5]: 0
Level of Plant Disease Control, Apple Scab [3, 6]: 0
Level of Plant Disease Control, Rice Blast [4]: ++

COc1cc(C(=O)c2c(Cl)cccc2Cl)c(C)cc1OC1CCCC1 [K, [4-(cyclopentyloxy)-5-methoxy-2-methylphenyl](2,6-dichlorophenyl)methanone]
Level of Plant Disease Control, Wheat Powdery Mildew [1]: 0
Level of Plant Disease Control, Wheat L. nodorum [2, 5]: +++
Level of Plant Disease Control, Rice Blast [4]: 0

COc1cc(C)c(C(=O)c2c(C)cccc2C)c(OC)c1OC [L, (2,6-dimethylphenyl)(2,3,4-trimethoxy-6-methylphenyl)methanone]
Level of Plant Disease Control, Wheat Powdery Mildew [1]: +++
Level of Plant Disease Control, Wheat L. nodorum [2, 5]: 0
Level of Plant Disease Control, Apple Scab [3, 6]: 0
Level of Plant Disease Control, Rice Blast [4]: 0

COc1cc(C)c(C(=O)c2c(C)ccc(Cl)c2C)c(OC)c1OC [Q, (3-chloro-2,6-dimethylphenyl)(2,3,4-trimethoxy-6-methylphenyl)methanone]
Level of Plant Disease Control, Wheat Powdery Mildew [1]: +++
Level of Plant Disease Control, Wheat L. nodorum [2, 5]: 0
Level of Plant Disease Control, Apple Scab [3, 6]: +
Level of Plant Disease Control, Rice Blast [4]: ++

COc1cc(C)c(C(=O)c2c(OC)ccc(Br)c2C)c(OC)c1OC [M, (3-bromo-6-methoxy-2-methylphenyl)(2,3,4-trimethoxy-6-methylphenyl)methanone]
Level of Plant Disease Control, Wheat Powdery Mildew [1]: +++
Level of Plant Disease Control, Wheat L. nodorum ([2]; in vivo): 0
Level of Plant Disease Control, Apple Scab ([3]; in vivo): +++
Level of Plant Disease Control, Rice Blast [4]: 0

COc1cc(C)c(C(=O)c2c(Cl)cccc2Cl)c(OCc2ccccc2F)c1OC [V, (2,6-dichlorophenyl)[2-[(2-fluorophenyl)methoxy]-3,4-dimethoxy-6-methylphenyl]methanone]
Level of Plant Disease Control, Wheat Powdery Mildew [1]: +++
Level of Plant Disease Control, Wheat L. nodorum [2, 5]: 0
Level of Plant Disease Control, Apple Scab [3, 6]: 0
Level of Plant Disease Control, Rice Blast [4]: ++

COc1cc(C)c(C(=O)c2c(C)ccc3ccccc23)c(OC)c1OC [F, (2,3,4-trimethoxy-6-methylphenyl)(2-methyl-1-naphthalenyl)methanone]
Level of Plant Disease Control, Wheat Powdery Mildew [1]: +++
Level of Plant Disease Control, Wheat L. nodorum [2, 5]: 0
Level of Plant Disease Control, Apple Scab [3, 6]: 0
Level of Plant Disease Control, Rice Blast [4]: ++

COc1cc(C)c(C(=O)c2c(Cl)cccc2OC)c(OCc2cccc(C)c2)c1OC [I, (2-chloro-6-methoxyphenyl)[3,4-dimethoxy-6-methyl-2-[(3-methylphenyl)methoxy]phenyl]methanone]
Level of Plant Disease Control, Wheat Powdery Mildew [1]: +++
Level of Plant Disease Control, Wheat L. nodorum [2, 5]: 0
Level of Plant Disease Control, Apple Scab [3, 6]: ++
Level of Plant Disease Control, Rice Blast [4]: +

CCCOc1c(OC)cc(C)c(C(=O)c2c(OC)ccc(Br)c2C)c1OCc1ccc(C(F)(F)F)cc1 [CC, (3-bromo-6-methoxy-2-methylphenyl)[4-methoxy-6-methyl-3-propoxy-2-[[4-(trifluoromethyl)phenyl]methoxy]phenyl]methanone]
Level of Plant Disease Control, Wheat Powdery Mildew [1]: +++
Level of Plant Disease Control, Wheat L. nodorum [2, 5]: 0
Level of Plant Disease Control, Apple Scab [3, 6]: 0
Level of Plant Disease Control, Rice Blast [4]: 0

COc1cc(C)c(C(=O)c2c(OC)ccc(Br)c2Cl)c(OC)c1OC [J, (3-bromo-2-chloro-6-methoxyphenyl)(2,3,4-trimethoxy-6-methylphenyl)methanone]
Level of Plant Disease Control, Wheat Powdery Mildew [1]: +++
Level of Plant Disease Control, Wheat L. nodorum [2, 5]: 0
Level of Plant Disease Control, Apple Scab [3, 6]: +
Level of Plant Disease Control, Rice Blast [4]: 0

COc1cc(C)c(C(=O)c2c(Cl)cccc2Cl)c(OCc2ccc(F)cc2)c1OC [D, (2,6-dichlorophenyl)[2-[(4-fluorophenyl)methoxy]-3,4-dimethoxy-6-methylphenyl]methanone]
Level of Plant Disease Control, Wheat Powdery Mildew [1]: +++

COc1cc(C)c(C(=O)c2c(OC)ccc(Br)c2C)c(OCc2cccc(C)c2)c1OC [Compound S, (3-bromo-6-methoxy-2-methylphenyl)[3,4-dimethoxy-6-methyl-2-[(3-methylphenyl)methoxy]phenyl]methanone]
Level of Plant Disease Control, Wheat Powdery Mildew [1]: +++

COc1cc(C)c(C(=O)c2c(C)cccc2C)c(OCc2cccc(C)c2)c1OC [Compound E, [3,4-dimethoxy-6-methyl-2-[(3-methylphenyl)methoxy]phenyl](2,6-dimethylphenyl)methanone]
Level of Plant Disease Control, Wheat Powdery Mildew [1]: +++

CCCOc1c(OC)cc(C)c(C(=O)c2c(OC)ccc(Br)c2C)c1OCc1ccc(C(C)(C)C)cc1 [BB, (3-bromo-6-methoxy-2-methylphenyl)[4-methoxy-6-methyl-3-propoxy-2-[[4-(1,1-dimethylethyl)phenyl]methoxy]phenyl]methanone]
Level of Plant Disease Control, Wheat Powdery Mildew [1]: +++
Level of Plant Disease Control, Wheat L. nodorum [2, 5]: 0
Level of Plant Disease Control, Apple Scab [3, 6]: 0
Level of Plant Disease Control, Rice Blast [4]: 0

COc1cc(C)c(C(=O)c2c(OC)ccc(Br)c2C)c(OCc2ccccc2C)c1OC [AA, (3-bromo-6-methoxy-2-methyiphenyl)[3,4-dimethoxy-6-methyl-2-[(2-methylphenyl)methoxy]phenyl]methanone]
Level of Plant Disease Control, Wheat Powdery Mildew [1]: +++
Level of Plant Disease Control, Wheat L. nodorum [2, 5]: 0
Level of Plant Disease Control, Apple Scab [3, 6]: 0
Level of Plant Disease Control, Rice Blast [4]: 0

CCC(=O)Oc1c(OC)c(OC)cc(C)c1C(=O)c1c(Cl)cccc1Cl [W, (2,6-dichlorophenyl)[3,4-dimethoxy-6-methyl-2-(1-oxopropoxy)phenyl]methanone]
Level of Plant Disease Control, Wheat Powdery Mildew [1]: +++
Level of Plant Disease Control, Wheat L. nodorum [2, 5]: 0
Level of Plant Disease Control, Apple Scab [3, 6]: +++
Level of Plant Disease Control, Rice Blast [4]: +++

CCCOc1c(OC)cc(C)c(C(=O)c2c(OC)ccc(Cl)c2C)c1O [DD, (3-chloro-6-methoxy-2-methylphenyl)(2-hydroxy-4-methoxy-6-methyl-3-propoxyphenyl)methanone]
Level of Plant Disease Control, Wheat Powdery Mildew [1]: +++
Level of Plant Disease Control, Wheat L. nodorum [2, 5]: 0
Level of Plant Disease Control, Apple Scab [3, 6]: 0
Level of Plant Disease Control, Rice Blast [4]: 0

COc1cc(C)c(C(=O)c2c(C)cccc2OC)c(OC)c1OC [G, (2-methoxy-6-methylphenyl)(2,3,4-trimethoxy-6-methylphenyl)methanone]
Level of Plant Disease Control, Wheat Powdery Mildew [1]: +++
Level of Plant Disease Control, Wheat L. nodorum [2, 5]: 0
Level of Plant Disease Control, Apple Scab [3, 6]: 0
Level of Plant Disease Control, Rice Blast [4]: 0

COc1cc(C)c(C(=O)c2c(C)ccc3ccccc23)c(OCc2ccccc2F)c1OC [X, [3,4-dimethoxy-6-methyl-2-[(2-fluorophenyl)methoxy]phenyl](2-methyl-1-naphthalenyl)methanone]
Level of Plant Disease Control, Wheat Powdery Mildew [1]: +++
Level of Plant Disease Control, Wheat L. nodorum [2, 5]: 0
Level of Plant Disease Control, Apple Scab [3, 6]: 0
Level of Plant Disease Control, Rice Blast [4]: 0

CCCCCOc1c(OC)cc(C)c(C(=O)c2c(OC)ccc(C)c2Cl)c1OC [P, (2-chloro-6-methoxy-3-methylphenyl)[2,4-dimethoxy-6-methyl-3-(pentyloxy)phenyl]methanone]
Level of Plant Disease Control, Wheat Powdery Mildew [1]: +++
Level of Plant Disease Control, Wheat L. nodorum [2, 5]: 0
Level of Plant Disease Control, Apple Scab [3, 6]: 0
Level of Plant Disease Control, Rice Blast [4]: ++

CCCOc1c(OC)cc(C)c(C(=O)c2c(OC)ccc(Br)c2C)c1OCc1ccccc1 [Y, (3-bromo-6-methoxy-2-methylphenyl)[4-methoxy-6-methyl-2-(phenylmethoxy)-3-propoxyphenyl]methanone]
Level of Plant Disease Control, Wheat Powdery Mildew [1]: +++
Level of Plant Disease Control, Wheat L. nodorum [2, 5]: 0
Level of Plant Disease Control, Apple Scab [3, 6]: 0
Level of Plant Disease Control, Rice Blast [4]: 0
